From ChEMBL document CHEMBL1145900, “Histone deacetylase inhibitors” (J Med Chem, 2003)
Values after ≈ are worked out from the molar mass of the structure shown.

Molecular target: Histone deacetylase
Test: not given
Assay type: protein assay, Homo sapiens
Settings: not given

Compound	IC50
O=C(/C=C/c1cc(C(=O)c2ccccc2)c[nH]1)NO	5 µM
Cn1cc(C(=O)c2ccc([N+](=O)[O-])cc2)cc1/C=C/C(=O)NO	3.9 µM
O=C(NCC1CCC(C(=O)NO)CC1)c1ccc(-c2ccccc2)cc1 (stereo unspecified)	0.31 µM
COc1ccc(C(=O)c2cc(/C=C/C(=O)NO)n(C)c2)cc1	2.9 µM
O=C(/C=C/c1cc(C(=O)c2ccccc2)cn1-c1ccccc1)NO	110 µM
Cn1cc(C(=O)c2ccc(Cl)cc2)cc1/C=C/C(=O)NO	2.4 µM
CN(C)c1ccc(C(=O)c2cc(/C=C/C(=O)NO)n(C)c2)cc1	2.4 µM
O=C(NO)c1ccc(CNC(=O)c2ccc(-c3ccccc3)cc2)cc1	0.24 µM
Cn1cc(C(=O)c2ccccc2)cc1CCC(=O)NO	36.8 µM
O=C(NO)c1ccc(CNC(=O)c2ccc3ccccc3c2)cc1	0.044 µM
Cc1ccc(C(=O)c2cc(/C=C/C(=O)NO)n(C)c2)cc1	1.9 µM
O=C(NO)c1ccc(CNC(=O)c2cccc3ccccc23)cc1	0.83 µM
Cn1cc(C(=O)c2ccccc2)cc1/C=C/C(=O)NO	3.8 µM
CC(C)n1cc(C(=O)c2ccccc2)cc1/C=C/C(=O)NO	53 µM
Cn1cc(C(=O)c2ccc(F)cc2)cc1/C=C/C(=O)NO	3.8 µM
Cn1cc(C(=O)/C=C/c2ccccc2)cc1/C=C/C(=O)NO	1 µM

Tested on: not listed separately
Test: Inhibition of acetylation of histone-4 in human T-24 cancer cells
Settings: not given

Compound	EC
Nc1ccccc1NC(=O)/C=C/c1ccc(NS(=O)(=O)c2ccc(-c3ccccc3)cc2)cc1	15 µM
Nc1ccccc1NC(=O)/C=C/c1ccc(S(=O)(=O)Nc2ccc(-c3ccccc3)cc2)cc1	5 µM

Tested on: Plasmodium falciparum
Test: Inhibitory concentration against Plasmodium falciparum […]
Assay type: functional, organism-based
Settings: not given

Compound	IC50
CC[C@H](C)[C@@H]1NC(=O)[C@H](Cc2cn(OC)c3ccccc23)NC(=O)[C@H](CCCCCC(=O)C(C)F)NC(=O)[C@H]2CCCCN2C1=O (stereo partly specified)	0.028 µg/mL (≈ 0.0436 µM)
CC[C@H](C)[C@@H]1NC(=O)[C@H](Cc2cn(OC)c3ccccc23)NC(=O)[C@H](CCCCCC(=O)OC)NC(=O)[C@H]2CCCCN2C1=O	0.21 µg/mL (≈ 0.336 µM)
CC[C@H](C)[C@@H]1NC(=O)[C@H](Cc2cn(OC)c3ccccc23)NC(=O)[C@H](CCCCCC(=O)C2CO2)NC(=O)[C@H]2CCCCN2C1=O (stereo partly specified)	< 0.015 µg/mL
CC[C@H](C)[C@@H]1NC(=O)[C@H](Cc2cn(OC)c3ccccc23)NC(=O)[C@H](CCCCCC(=O)O)NC(=O)[C@H]2CCCCN2C1=O	> 1 µg/mL
CC[C@H](C)[C@@H]1NC(=O)[C@H](Cc2cn(OC)c3ccccc23)NC(=O)[C@H](CCCCCCC(=O)OC)NC(=O)[C@H]2CCCCN2C1=O	0.5 µg/mL (≈ 0.782 µM)
CC[C@H](C)[C@@H]1NC(=O)[C@H](Cc2cn(OC)c3ccccc23)NC(=O)[C@H](CCCCCC(=O)C(C)O)NC(=O)[C@H]2CCCCN2C1=O (stereo partly specified)	0.022 µg/mL (≈ 0.0344 µM)
CCC(=O)C(F)CCCC[C@@H]1NC(=O)[C@H]2CCCCN2C(=O)[C@H]([C@@H](C)CC)NC(=O)[C@H](Cc2cn(OC)c3ccccc23)NC1=O (stereo partly specified)	0.7 µg/mL (≈ 1.09 µM)
CC[C@H](C)[C@@H]1NC(=O)[C@H](Cc2cn(OC)c3ccccc23)NC(=O)[C@H](CCCCCC(=O)NO)NC(=O)[C@H]2CCCCN2C1=O	0.00024 µg/mL (≈ 0.000383 µM)
CC[C@H](C)[C@@H]1NC(=O)[C@H](Cc2cn(OC)c3ccccc23)NC(=O)[C@H](CCCCC(=O)OC)NC(=O)[C@H]2CCCCN2C1=O	> 1 µg/mL

Molecular target: Histone deacetylase
Test: Inhibitory concentration against human Histone deacetylase in Hela cells
Assay type: cell-based
Settings: not given

Compound	IC50
CC[C@H](C)[C@@H]1NC(=O)[C@H](Cc2cn(OC)c3ccccc23)NC(=O)[C@H](CCCCCC(=O)C(C)F)NC(=O)[C@H]2CCCCN2C1=O (stereo partly specified)	1 nM
CC[C@H](C)[C@@H]1NC(=O)[C@H](Cc2cn(OC)c3ccccc23)NC(=O)[C@H](CCCCCC(=O)OC)NC(=O)[C@H]2CCCCN2C1=O	0.4 nM
CC[C@H](C)[C@@H]1NC(=O)[C@H](Cc2cn(OC)c3ccccc23)NC(=O)[C@H](CCCCCC(=O)C2CO2)NC(=O)[C@H]2CCCCN2C1=O (stereo partly specified)	< 0.1 nM
CC[C@H](C)[C@@H]1NC(=O)[C@H](Cc2cn(OC)c3ccccc23)NC(=O)[C@H](CCCCCC(=O)O)NC(=O)[C@H]2CCCCN2C1=O	15 nM
CC[C@H](C)[C@@H]1NC(=O)[C@H](Cc2cn(OC)c3ccccc23)NC(=O)[C@H](CCCCCCC(=O)OC)NC(=O)[C@H]2CCCCN2C1=O	7 nM
CC[C@H](C)[C@@H]1NC(=O)[C@H](Cc2cn(OC)c3ccccc23)NC(=O)[C@H](CCCCCC(=O)C(C)O)NC(=O)[C@H]2CCCCN2C1=O (stereo partly specified)	0.3 nM
CCC(=O)C(F)CCCC[C@@H]1NC(=O)[C@H]2CCCCN2C(=O)[C@H]([C@@H](C)CC)NC(=O)[C@H](Cc2cn(OC)c3ccccc23)NC1=O (stereo partly specified)	110 nM
CC[C@H](C)[C@@H]1NC(=O)[C@H](Cc2cn(OC)c3ccccc23)NC(=O)[C@H](CCCCCC(=O)NO)NC(=O)[C@H]2CCCCN2C1=O	0.2 nM
CC[C@H](C)[C@@H]1NC(=O)[C@H](Cc2cn(OC)c3ccccc23)NC(=O)[C@H](CCCCC(=O)OC)NC(=O)[C@H]2CCCCN2C1=O	74 nM

Molecular target: Histone deacetylase
Test: not given
Parameters: species or system Rattus norvegicus
Settings: not given
Remark: another data set of the same source

Compound	IC50
CC(C)C[C@H]1C(=O)N2C(=O)[C@@H]1CCCCOc1ccc(cc1)C[C@H]2C(=O)NCCCCCC(=O)NO	38 nM
CC(C)C[C@H]1C(=O)N[C@H](C(=O)NCCCCCC(=O)NO)Cc2ccc(cc2)OCCCC[C@H]1C(=O)OC(C)(C)C	2100 nM
O=C(CCCCCCC(=O)c1ccccc1)NO	270 nM
O=C(CCCCCN1C(=O)c2ccccc2C1=O)NO	515 nM
CN(C)c1ccc(C(=O)NCCCCCCC(=O)NO)cc1	46 nM
O=C(CCCCCNC(=O)c1ccc(Cl)cc1)NO	369 nM
O=C(CCCCCNC(=O)c1ccc(-c2ccccc2)cc1)NO	265 nM
CN(C)c1ccc(C(=O)NCCCCC(=O)NO)cc1	> 10000 nM
O=C(CCCCCNC(=O)c1ccc([N+](=O)[O-])cc1)NO	1566 nM
CN(C)c1ccc(C(=O)NCCCCCCCC(=O)NO)cc1	145 nM
CN(C)c1ccc(C(=O)NCCCCCC(=O)NO)cc1	244 nM

Molecular target: Histone deacetylase
Test: not given
Assay type: protein assay, Homo sapiens
Settings: not given
Remark: another data set of the same source

Compound	IC50
C[C@H](CCCCC(=O)NO)NC(=O)c1ccc(N(C)C)cc1	359 nM
C[C@H](/C=C/C=C/C(=O)NO)NC(=O)c1ccc(N(C)C)cc1	12187 nM
O=C(CCCCCCN1c2cccc3cccc(c23)S1(=O)=O)NO	10 nM

Molecular target: Histone deacetylase
Test: not given
Assay type: protein assay, Homo sapiens
Settings: not given
Remark: another data set of the same source

Compound	IC50
O=C(CCCCCCNC(=O)c1cc2cc(Cl)ccc2o1)NO	15 nM
O=C(CCCCCCNC(=O)c1ccccn1)NO	1680 nM
O=C(CCCCCCNC(=O)c1cc2cc(Br)ccc2[nH]1)NO	3.5 nM
O=C(CCCCCCNC(=O)c1cc2cc(F)ccc2[nH]1)NO	5.4 nM
O=C(CCCCCCNC(=O)c1ccc[nH]1)NO	524 nM
COc1ccc2oc(C(=O)NCCCCCCC(=O)NO)cc2c1	15 nM
O=C(CCCCCCNC(=O)c1ccccc1)NO	1006 nM
O=C(CCCCCCC(=O)C(F)(F)F)Nc1cccc(-c2ccccc2)c1	380 nM
O=C(CCCCCCNC(=O)c1cccc2cc[nH]c12)NO	41 nM
O=C(CCCCCCNC(=O)C1Cc2ccccc2O1)NO (stereo unspecified)	29.6 nM
COc1ccc2[nH]c(C(=O)NCCCCCCC(=O)NO)cc2c1	6.5 nM
O=C(CCCCCCNC(=O)c1cccc2[nH]ccc12)NO	80.3 nM
O=C(CCCCCCNC(=O)c1ccc2[nH]ccc2c1)NO	31.4 nM
COc1cccc2[nH]c(C(=O)NCCCCCCC(=O)NO)cc12	3.1 nM
COc1cc(OC)c2cc(C(=O)NCCCCCCC(=O)NO)[nH]c2c1	3.1 nM
O=C(CCCCCCNC(=O)c1ccc2cc[nH]c2c1)NO	56.5 nM
O=C(CCCCCCNC(=O)c1cc2ccccc2[nH]1)NO	14.6 nM
CC1c2ccccc2CC1C(=O)NCCCCCCC(=O)NO (stereo unspecified)	732 nM
O=C(/C=C/CCCCOc1ccc(-c2ccccc2)cc1)C(F)(F)F	5000 nM
O=C(CCCCCCNC(=O)c1c[nH]c2ccccc12)NO	37.5 nM

Tested on: MDA-MB-435
Test: cells
Assay type: functional, cell-based
Settings: Homo sapiens
Description: Inhibitory concentration against MDA-435 cells proliferation

Compound	IC50
O=C(CCCCCNC(=O)[C@H](Cc1ccccc1)N1C(=O)CCC1=O)NO	10000 nM
CC(C)C[C@H]1C(=O)N2C(=O)[C@@H]1CCCCOc1ccc(cc1)C[C@H]2C(=O)NCCCCCC(=O)NO	150 nM
CC(C)C[C@@H]1CC(=O)N([C@@H](Cc2ccccc2)C(=O)NCCCCCC(=O)NO)C1=O	670 nM
O=C(CCCCCCNC(=O)C1Cc2ccccc2O1)NO (stereo unspecified)	490 nM
O=C(CCCCCCNC(=O)c1cc2ccccc2[nH]1)NO	150 nM
CCC[C@H]1C(=O)N([C@@H](Cc2ccccc2)C(=O)NCCCCCC(=O)NO)C(=O)[C@@H]1CC(C)C	570 nM
CCC[C@H]1C(=O)N([C@@H](Cc2ccc(OC)cc2)C(=O)NCCCCCC(=O)NO)C(=O)[C@@H]1CC(C)C	180 nM

Molecular target: Histone deacetylase (Homo sapiens) (UniProt Q13547+O15379+Q9UBN7+Q92769+Q9UQL6+Q8WUI4+Q9BY41+Q96DB2+P56524+Q9UKV0+Q969S8)
Test: Percent inhibition against isolated Histone deacetylase at 30 uM
Assay type: protein assay
Settings: not given

Compound	inhibition
Cn1cc(C(=O)c2ccccc2)cc1C=C1C(=O)NC(=S)NC1=O	0%
Cn1cc(C(=O)c2ccccc2)cc1C=C1C(=O)NC(=O)NC1=O	0%

Molecular target: Histone deacetylase
Test: Inhibitory concentration against isolated Histone deacetylase
Assay type: protein assay, Homo sapiens
Settings: not given

Compound	IC50
Cn1cc(C(=O)Cc2ccccc2)cc1C=C1C(=O)NC(=O)NC1=O	104000 nM
Cn1cc(C(=O)c2ccccc2)cc1/C=C/C#N	70000 nM
CCOC(=O)NCCSSCCNC(=O)/C(Cc1ccc(O)c(Br)c1)=N/O	79 nM
Cn1cc(C(=O)Cc2ccccc2)cc1C=C1C(=O)NC(=S)NC1=O	85000 nM
COC(=O)NCCSSCCNC(=O)/C(Cc1ccc(O)c(Br)c1)=N/O [PSAMMAPLIN D]	44 nM
O=C(NCCSSCCNC(=O)/C(Cc1ccc(O)c(Br)c1)=N/O)/C(Cc1ccc(O)c(Br)c1)=N/O [PSAMMAPLIN A]	4 nM
NC(=O)C(=O)NCCSSCCNC(=O)/C(Cc1ccc(O)c(Br)c1)=N/O [PSAMMAPLIN E]	330 nM
O=C(O)C(=O)NCCSSCCNC(=O)/C(Cc1ccc(O)c(Br)c1)=N/O	2 nM
Cn1cc(C(=O)c2ccccc2)cc1/C=C/C(=N)N	23000 nM

Tested on: HT-1080
Test: cells
Assay type: functional, cell-based
Settings: Homo sapiens
Description: Inhibitory concentration against HT1080 cells proliferation

Compound	IC50
CC(C)C[C@H]1C(=O)N2C(=O)[C@@H]1CCCCOc1ccc(cc1)C[C@H]2C(=O)NCCCCCC(=O)NO	250 nM
O=C(CCCCCCNC(=O)C1Cc2ccccc2O1)NO (stereo unspecified)	760 nM
O=C(CCCCCCNC(=O)c1cc2ccccc2[nH]1)NO	140 nM
